Experimental data reported in paper PMC10620772, “Design, synthesis, and biological evaluation of new pyrimidine-5-carbonitrile derivatives as novel anti-cancer, dual EGFR^WT/COX-2 inhibitors with docking studies” (RSC Advances, 2023).
Several values for one entry are separate records, joined by “and”; a condition that tells them apart may be missing. Equal values may be shown once.

Experiments:
renal cancer subpanel = test: NCI60 five-dose, subpanel VII; format: cell-based, human; details: for GI50: Homo sapiens, read-out: MG-MID (GI50); for GI50 / MG-MID (TGI): subpanel VII; for Selectivity index (GI50) / Selectivity index (TGI): full panel MG-MID / subpanel VII
From the text: (§1) (2) The molar concentration of the compound responsible for total growth inhibition, also known as total growth inhibition (TGI).
(§2) Regarding subpanel selectivity toward certain cancer type, the method of determining a compound's selectivity index is to divide the full panel MG-MID (μM) value by each single subpanel. Values above six indicate high selectivity against the subpanel; moderate selectivity is denoted by values between three and six. Conversely, compounds are termed nonselective if their selectivity is less than three.[30,37]

CNS cancer subpanel = test: NCI60 five-dose, subpanel IV; format: cell-based, human; details: for GI50: Homo sapiens, read-out: MG-MID (GI50); for GI50 / MG-MID (TGI): subpanel IV; for Selectivity index (GI50) / Selectivity index (TGI): full panel MG-MID / subpanel IV
From the text: as §1, §2

COX-1 = biological target: T1, COX-1 (Ovis aries, UniProt P05979); test: COX-1 inhibitor screening kit (Biovision); format: biochemical; details: means ± SD of three experiments; read-out: COX1 IC50
T1 construct: purchased Biovision K548
T1 sequence (P05979 25-600): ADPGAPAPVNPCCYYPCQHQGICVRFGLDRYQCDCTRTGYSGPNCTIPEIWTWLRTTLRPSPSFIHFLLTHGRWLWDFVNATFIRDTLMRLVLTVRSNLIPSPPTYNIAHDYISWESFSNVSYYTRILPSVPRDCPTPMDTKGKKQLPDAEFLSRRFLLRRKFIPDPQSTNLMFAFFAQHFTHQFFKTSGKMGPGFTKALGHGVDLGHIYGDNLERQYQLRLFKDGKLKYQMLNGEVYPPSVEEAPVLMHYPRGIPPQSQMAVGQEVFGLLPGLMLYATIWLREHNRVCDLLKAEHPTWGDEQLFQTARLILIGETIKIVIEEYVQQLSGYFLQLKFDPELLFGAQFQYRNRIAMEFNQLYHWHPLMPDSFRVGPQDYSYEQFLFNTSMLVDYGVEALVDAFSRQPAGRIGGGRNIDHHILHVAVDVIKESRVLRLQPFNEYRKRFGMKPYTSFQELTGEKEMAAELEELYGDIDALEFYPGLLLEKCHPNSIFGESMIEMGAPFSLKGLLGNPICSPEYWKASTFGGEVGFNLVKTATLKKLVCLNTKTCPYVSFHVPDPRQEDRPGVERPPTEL
Description: The inhibitory activity of novel 4e & 4f against COX-1/COX-2 was evaluated by using Biovision COX-1/COX-2 Inhibitor Screening Kit (Catalog #: K548) and (Catalog #: K547), respectively.

EGFR^WT = biological target: T2, EGFR^WT (Homo sapiens, UniProt P00533); test: In vitro EGFR^WT inhibitory assay (BPS Bioscience kinase kit); format: biochemical; details: means ± SD of three experiments
T2 construct: purchased BPS Bioscience 40 321
T2 sequence (P00533 25-1210): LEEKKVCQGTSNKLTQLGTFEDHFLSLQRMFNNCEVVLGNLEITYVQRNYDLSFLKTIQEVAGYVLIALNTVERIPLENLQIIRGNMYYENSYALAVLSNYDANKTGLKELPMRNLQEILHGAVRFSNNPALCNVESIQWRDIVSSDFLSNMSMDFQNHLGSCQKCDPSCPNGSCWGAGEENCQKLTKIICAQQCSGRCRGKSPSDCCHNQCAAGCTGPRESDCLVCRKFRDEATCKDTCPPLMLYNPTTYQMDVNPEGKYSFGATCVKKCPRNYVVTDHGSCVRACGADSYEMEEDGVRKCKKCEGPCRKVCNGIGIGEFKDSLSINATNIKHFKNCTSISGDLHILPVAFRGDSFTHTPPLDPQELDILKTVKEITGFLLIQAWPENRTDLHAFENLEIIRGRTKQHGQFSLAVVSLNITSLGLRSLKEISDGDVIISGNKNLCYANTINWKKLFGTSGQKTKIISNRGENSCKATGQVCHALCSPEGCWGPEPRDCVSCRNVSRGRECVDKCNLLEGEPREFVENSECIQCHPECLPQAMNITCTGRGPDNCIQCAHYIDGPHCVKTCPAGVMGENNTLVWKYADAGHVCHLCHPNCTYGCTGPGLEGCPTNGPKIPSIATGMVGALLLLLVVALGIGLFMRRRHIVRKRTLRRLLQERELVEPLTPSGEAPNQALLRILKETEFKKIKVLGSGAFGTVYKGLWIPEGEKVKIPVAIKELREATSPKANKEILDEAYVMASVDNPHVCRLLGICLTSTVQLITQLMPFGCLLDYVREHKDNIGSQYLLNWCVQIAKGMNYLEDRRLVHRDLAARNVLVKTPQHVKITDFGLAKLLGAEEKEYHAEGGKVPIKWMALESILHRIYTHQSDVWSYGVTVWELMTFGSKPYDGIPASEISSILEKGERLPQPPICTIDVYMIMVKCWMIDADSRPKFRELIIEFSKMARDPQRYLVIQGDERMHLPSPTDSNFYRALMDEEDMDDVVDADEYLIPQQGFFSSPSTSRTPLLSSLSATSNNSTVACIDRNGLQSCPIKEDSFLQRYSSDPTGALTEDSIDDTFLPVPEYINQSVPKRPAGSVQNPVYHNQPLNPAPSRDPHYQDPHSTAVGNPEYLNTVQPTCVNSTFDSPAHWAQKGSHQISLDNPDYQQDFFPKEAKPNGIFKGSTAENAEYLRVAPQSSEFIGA
Description: (1) Prepare the mixture of N wells × (kinase assay buffer 6 μl, ATP1 μl, PTK substrate 1 μl and water 17 μl). to every well pipette the 25 μl. […] On the contrary, add 5 μl of inhibitor buffer to control and plank wells. (3) Pipette 20 μl of EGFR^WT to test and control wells, on the blank wells pipette 20 μl kinase assay buffer. Then incubate at R.T for 40 min. (4) end the incubation after 40 min by adding to every well 50 μl of Kinase-Glo Max reagent, and incubate 15 min. By measuring the ATP quantity after kinase reaction, the activity of kinase could be detected. (5) use microplate reader to measure the luminescence.[51]

Colo-205 cells = test: Annexin V-FITC apoptosis assay; format: cell-based, human; details: treated at IC50
From the text: The Annexin V-FITC/propidium iodide dual staining assay was used to assess the effect of compound (4e and 4f) on inducing apoptosis in Colo-205 cells. This assay allows for the identification of early stages of apoptosis before the loss of cell membrane integrity, allowing measurements of apoptotic death kinetics in relation to the cell cycle.
Cell Culture Unit, VACSERA, Cairo, Egypt, conducted an apoptosis investigation.
Centrifuge to collect cells, using binding buffer to resuspend cells. Pipette 5 μl of Annexine-V and 5 μl. Subsequently, incubate sample for 5 min. In R.T, dark condition. Detect Annexine V-FITC binding cells detected by FACSCaliber flow cytometer (Ex = 488 nm; Em = 530 nm) which indicate apoptotic cells. On the other side the PI stained cells detected by FL2 flow cytometer, which detect necrotic cells.[53,54]

colon cancer subpanel = test: NCI60 five-dose, subpanel III; format: cell-based, human; details: for GI50: Homo sapiens, read-out: MG-MID (GI50); for GI50 / MG-MID (TGI): subpanel III; for Selectivity index (GI50) / Selectivity index (TGI): full panel MG-MID / subpanel III
From the text: as §1, §2

## N#Cc1c(-c2ccc(F)cc2)nc(SCc2ccccc2)nc1N1CCNCC1 [4e, 2-(Benzylthio)-4-(4-fluorophenyl)-6-(piperazin-1-yl) pyrimidine-5-carbonitrile]
Renal cancer subpanel
  GI50: 12.2 µM
  Selectivity index (GI50): 0.87
  Selectivity index (TGI): 0.92
  MG-MID (TGI): 25.75 µM
CNS cancer subpanel
  GI50: 12.6 µM
  Selectivity index (GI50): 0.85
  Selectivity index (TGI): 0.88
  MG-MID (TGI): 26.80 µM
COX-1
  IC50: 11 ± 0.31 µM
EGFR^WT
  IC50: 0.096 ± 0.004 µM
Colo-205 cells
  Apoptosis early: 19.91%
  Apoptosis late: 25.22%
  Apoptosis total: 51.07%
  Necrosis: 5.94%
Colon cancer subpanel
  GI50: 5.1 µM
  Selectivity index (GI50): 2.09
  Selectivity index (TGI): 1.79
  MG-MID (TGI): 13.12 µM

## N#Cc1c(-c2ccc(F)cc2)nc(SCc2ccc(F)cc2)nc1N1CCNCC1 [4f, 2-((4-Fluorobenzyl)thio)-4-(4-fluorophenyl)-6-(piperazin-1-yl) pyrimidine-5-carbonitrile]
Renal cancer subpanel
  GI50: 23.2 µM
  Selectivity index (GI50): 0.57
  Selectivity index (TGI): 0.94
  MG-MID (TGI): 28.11 µM
CNS cancer subpanel
  GI50: 14.3 µM
  Selectivity index (GI50): 0.94
  Selectivity index (TGI): 0.91
  MG-MID (TGI): 28.98 µM
COX-1
  IC50: 31.6 ± 0.89 µM
EGFR^WT
  IC50: 0.23 µM and 0.235 µM
Colo-205 cells
  Apoptosis early: 26.15%
  Apoptosis late: 12.71%
  Apoptosis total: 43.12%
  Necrosis: 4.26%
Colon cancer subpanel
  GI50: 7 µM
  Selectivity index (GI50): 1.92
  Selectivity index (TGI): 1.54
  MG-MID (TGI): 17.15 µM
